Measurements taken from ChEMBL document CHEMBL1131978, “3D QSAR studies on new oxazolidinone antibacterial agents by comparative molecular field analysis” (Bioorg Med Chem Lett, 1999).
Converted amounts (≈) assume the structure as drawn.

Test system: Staphylococcus aureus
Experiment: In vitro antibacterial activity against the methicillin-resistant Staphylococcus aureus 88
Format: functional

Structure (SMILES)	Log 1/MIC	MIC [µg/mL]
CCCCCCCCCCS(=O)(=O)N[C@H](CCCCCC)COP(=O)(O)OCCO	-0.19	1.56 (≈ 3.29 µM)
CC(=O)NC[C@H]1CN(c2ccc(N3CCN(C(=O)c4cccs4)CC3)c(F)c2)C(=O)O1	-0.19	1.56 (≈ 3.49 µM)
CC(=O)NC[C@H]1CN(c2ccc(N3CCN(C(=O)c4cc(COC(N)=O)no4)CC3)c(F)c2)C(=O)O1	-0.19	1.56 (≈ 3.09 µM)
CC(=O)NC[C@H]1CN(c2ccc(N3CCN(Cc4cc(-c5ccc(F)cc5)no4)CC3)c(F)c2)C(=O)O1	-0.49	3.12 (≈ 6.1 µM)
CC(=O)NC[C@H]1CN(c2ccc(N3CCN(Cc4cc(-c5ccc(C#N)cc5)no4)CC3)c(F)c2)C(=O)O1	-0.8	6.25 (≈ 12.1 µM)
CC(=O)NC[C@H]1CN(c2ccc(N3CCN(C(=O)c4nccs4)CC3)c(F)c2)C(=O)O1	-0.19	1.56 (≈ 3.49 µM)
COc1ccc(-c2cc(CN3CCN(c4ccc(N5C[C@H](CNC(C)=O)OC5=O)cc4F)CC3)on2)cc1OC	-0.49	3.12 (≈ 5.64 µM)
CC(=O)NC[C@H]1CN(c2ccc(N3CCN(C(=O)c4cc(-c5cccs5)no4)CC3)c(F)c2)C(=O)O1	-0.11	0.78 (≈ 1.52 µM)
COc1cccc(-c2cc(CN3CCN(c4ccc(N5C[C@H](CNC(C)=O)OC5=O)cc4F)CC3)on2)c1	-0.49	3.12 (≈ 5.96 µM)
CC(=O)NC[C@H]1CN(c2ccc(N3CCN(C(=O)c4cc(C(=O)N(C)C)no4)CC3)c(F)c2)C(=O)O1	-0.49	3.12 (≈ 6.21 µM)
CC(=O)NC[C@H]1CN(c2ccc(N3CCN(C(=O)c4cc(Br)no4)CC3)c(F)c2)C(=O)O1	0.11	0.78 (≈ 1.53 µM)
CC(=O)NC[C@H]1CN(c2ccc(N3CCN(C(=O)c4cc(-c5nccs5)no4)CC3)c(F)c2)C(=O)O1	0.41	0.39 (≈ 0.758 µM)
CC(=O)NC[C@H]1CN(c2ccc(N3CCN(C(=O)c4cc(C(=O)O)no4)CC3)c(F)c2)C(=O)O1	-2	100 (≈ 210 µM)
CC(=O)NC[C@H]1CN(c2ccc(N3CCN(Cc4cc(-c5ccccn5)no4)CC3)c(F)c2)C(=O)O1	-0.19	1.56 (≈ 3.15 µM)
CC(=O)NC[C@H]1CN(c2ccc(N3CCN(C(=O)c4ccno4)CC3)c(F)c2)C(=O)O1	-0.19	1.56 (≈ 3.62 µM)
CC(=O)NC[C@H]1CN(c2ccc(N3CCN(Cc4cc(/C=C/c5ccccc5)no4)CC3)c(F)c2)C(=O)O1	-1.4	25 (≈ 48.1 µM)
CC(=O)NC[C@H]1CN(c2ccc(N3CCN(C(=O)c4cc(C)no4)CC3)c(F)c2)C(=O)O1	-0.19	1.56 (≈ 3.5 µM)

Structure (SMILES)	Log 1/MIC	MIC [µg/mL]
COc1cc(C(=O)N2CCN(c3ccc(N4C[C@H](CNC(C)=O)OC4=O)cc3F)CC2)on1	-0.19	1.56 (≈ 3.38 µM)
CC(=O)NC[C@H]1CN(c2ccc(N3CCN(C(=O)c4cc(C(F)(F)F)no4)CC3)c(F)c2)C(=O)O1	-0.49	3.12 (≈ 6.25 µM)
CC(=O)NC[C@H]1CN(c2ccc(N3CCN(C(=O)c4cc(COC(=O)N(C)C)no4)CC3)c(F)c2)C(=O)O1	-0.49	3.12 (≈ 5.86 µM)
CC(=O)NC[C@H]1CN(c2ccc(N3CCN(Cc4cc(-c5ccc(Cl)cc5)no4)CC3)c(F)c2)C(=O)O1	-1.7	50 (≈ 94.7 µM)
CC(=O)NC[C@H]1CN(c2ccc(N3CCN(C(=O)c4cc(C(N)=O)no4)CC3)c(F)c2)C(=O)O1	-0.19	1.56 (≈ 3.29 µM)
CC(=O)NC[C@H]1CN(c2ccc(N3CCN(Cc4cc(-c5ccc(Oc6ccccc6)cc5)no4)CC3)c(F)c2)C(=O)O1	-2	100 (≈ 171 µM)
CC(=O)NC[C@H]1CN(c2ccc(N3CCN(C(=O)c4cc(C#N)no4)CC3)c(F)c2)C(=O)O1	-0.19	1.56 (≈ 3.42 µM)
CC(=O)NC[C@H]1CN(c2ccc(N3CCN(C(=O)c4cc(-c5csnn5)no4)CC3)c(F)c2)C(=O)O1	0.11	0.78 (≈ 1.51 µM)
CC(=O)NC[C@H]1CN(c2ccc(N3CCN(C(=O)c4cc(-c5cnsn5)no4)CC3)c(F)c2)C(=O)O1	-0.19	1.56 (≈ 3.03 µM)
CC(=O)NC[C@H]1CN(c2ccc(N3CCN(Cc4cc(-c5ccc(C)cc5)no4)CC3)c(F)c2)C(=O)O1	-1.1	12.5 (≈ 24.6 µM)
CC(=O)NC[C@H]1CN(c2ccc(N3CCN(C(=O)c4cc(O)no4)CC3)c(F)c2)C(=O)O1	-1.7	50 (≈ 112 µM)
CC(=O)NC[C@H]1CN(c2ccc(N3CCN(C(=O)c4cc(Cl)no4)CC3)c(F)c2)C(=O)O1	0.11	0.78 (≈ 1.67 µM)
CC(=O)NC[C@H]1CN(c2ccc(N3CCN(C(=O)c4cc(OCCF)no4)CC3)c(F)c2)C(=O)O1	-0.19	1.56 (≈ 3.16 µM)
COc1cc(CN2CCN(c3ccc(N4C[C@H](CNC(C)=O)OC4=O)cc3F)CC2)on1	-0.49	3.12 (≈ 6.97 µM)
CC(=O)NC[C@H]1CN(c2ccc(N3CCN(C(=O)CO)CC3)c(F)c2)C(=O)O1 [EPEREZOLID]	-0.19	1.56 (≈ 3.96 µM)
CC(=O)NC[C@H]1CN(c2ccc(N3CCOCC3)c(F)c2)C(=O)O1 [LINEZOLID]		1.56 (≈ 4.62 µM)
